Data from publication PMC11876601 (Molecular Systems Biology, 2025).
Like-named read-outs stand apart in the source and are kept apart here.

What was measured:
Test in all cases: cells
PaTu-8988-T [1] = test system: PaTu-8988-T; set-up: Viability of PDAC cell lines, ATPlite luminescence, 11-dose single-agent curve fit; settings: 72 h
How it was run: (§1)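 cells (1000 to 5000 per well) seeded 24 h before drug addition in a screen at 0.2% final DMSO. Controls were drug-free wells (negative) and 5 µM staurosporine (positive).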

HPDE = test system: HPDE; set-up: Viability of PDAC cell lines, ATPlite luminescence, 11-dose single-agent curve fit; settings: 72 h
How it was run: as §1

Colo-357 = test system: Colo-357; set-up: Viability of PDAC cell lines, ATPlite luminescence, 11-dose single-agent curve fit
How it was run: as §1

Dan-G [2] = test system: Dan-G; set-up: Viability of PDAC cell lines, ATPlite luminescence, 11-dose single-agent curve fit; settings: 72 h
How it was run: as §1

Capan-1 = test system: Capan-1; set-up: Viability of PDAC cell lines, ATPlite luminescence, 11-dose single-agent curve fit
How it was run: as §1

MiaPaCa-2 [3] = test system: MiaPaCa-2; set-up: Viability of PDAC cell lines, ATPlite luminescence, 11-dose single-agent curve fit
How it was run: as §1

PANC-1 = test system: PANC-1; set-up: Viability of PDAC cell lines, ATPlite luminescence, 11-dose single-agent curve fit
How it was run: as §1

HuP-T4 = test system: HuP-T4; set-up: Viability of PDAC cell lines, ATPlite luminescence, 11-dose single-agent curve fit
How it was run: as §1

AsPC-1 = test system: AsPC-1; set-up: Viability of PDAC cell lines, ATPlite luminescence, 11-dose single-agent curve fit
How it was run: as §1

BxPC-3 [4] = test system: BxPC-3; set-up: ATPlite luminescence viability of PDAC cell lines, 11-dose single-agent curves, 4-parameter fit; settings: Homo sapiens, BXPC-3, 72 h, read-out: EC50 [nM]
Description: (§2) Afterward, small amounts were transferred to 384-well intermediate plates (Greiner Bio-One GmbH, Germany). […] For drug combination screening, 1000 to 5000 cells were seeded into 384-well plates (CulturPlate™, Perkin Elmer, MA, USA) using a Multidrop™ Combi Reagent Dispenser (Thermo Scientific, MA, USA) in 50 µl medium per well 24 h prior to drug treatment (seeding densities see Appendix Table S1). […] The final DMSO concentration in each well was 0.2%. […] Eight wells per plate without library drug served as negative controls, and sixteen wells per plate containing 5 µM Staurosporine served as positive controls. […] Next, we analyzed the drug sensitivity of immortalized duct cell line HPDE to detect effects unrelated to pancreatic cancer.

FAMPAC [5] = test system: FAMPAC; set-up: ATPlite luminescence viability of PDAC cell lines, 11-dose single-agent curves, 4-parameter fit; settings: 72 h, read-out: EC50 [nM]
Description: as §2

Suit2-07 [6] = test system: Suit2-07; set-up: ATPlite luminescence viability of PDAC cell lines, 11-dose single-agent curves, 4-parameter fit; settings: 72 h, read-out: EC50 [nM]
Description: as §2

PSN-1 [7] = test system: PSN-1; set-up: ATPlite luminescence viability of PDAC cell lines, 11-dose single-agent curves, 4-parameter fit; settings: Homo sapiens, PSN1, 72 h, read-out: EC50 [nM]
Description: as §2

BxPC-3 [8] = test system: BxPC-3; set-up: Viability of PDAC cell lines, ATPlite luminescence, 11-dose single-agent curve fit
How it was run: as §1

FAMPAC [9] = test system: FAMPAC; set-up: Viability of PDAC cell lines, ATPlite luminescence, 11-dose single-agent curve fit; settings: 72 h
How it was run: as §1

Suit2-07 [10] = test system: Suit2-07; set-up: Viability of PDAC cell lines, ATPlite luminescence, 11-dose single-agent curve fit; settings: 72 h
How it was run: as §1

PSN-1 [11] = test system: PSN-1; set-up: Viability of PDAC cell lines, ATPlite luminescence, 11-dose single-agent curve fit
How it was run: as §1

PaTu-8988-T [12] = test system: PaTu-8988-T; set-up: ATPlite luminescence viability of PDAC cell lines, 11-dose single-agent curves, 4-parameter fit; settings: Homo sapiens, PaTu 8988t, 72 h, read-out: EC50 [nM]
Description: as §2

Dan-G [13] = test system: Dan-G; set-up: ATPlite luminescence viability of PDAC cell lines, 11-dose single-agent curves, 4-parameter fit; settings: 72 h, read-out: EC50 [nM]
Description: as §2

MiaPaCa-2 [14] = test system: MiaPaCa-2; set-up: ATPlite luminescence viability of PDAC cell lines, 11-dose single-agent curves, 4-parameter fit; settings: Homo sapiens, MIA PaCa-2, 72 h, read-out: EC50 [nM]
Description: as §2

[15] = Homo sapiens, PaTu 8988t, read-out: EC50 [nM]
[16] = Homo sapiens, COLO357, 72 h, read-out: EC50 [nM]
[17] = Homo sapiens, CAPAN-1, 72 h, read-out: EC50 [nM]
[18] = Homo sapiens, MIA PaCa-2, 72 h, read-out: EC50 [nM]
[19] = Homo sapiens, PANC-1, 72 h, read-out: EC50 [nM]
[20] = Homo sapiens, HuP-T4, 72 h, read-out: EC50 [nM]
[21] = Homo sapiens, ASPC1, 72 h, read-out: EC50 [nM]
[22] = Homo sapiens, BXPC-3, 72 h, read-out: EC50 [nM]
[23] = Homo sapiens, PSN1, 72 h, read-out: EC50 [nM]

SMILES	EC50 (Colo-357; [16])	EC50 (MiaPaCa-2 [3]; [18])	EC50 (PANC-1; [19])	EC50 (AsPC-1; [21])	EC50 (BxPC-3 [8]; [22])	EC50 (PaTu-8988-T [1]; [15])	EC50 (HPDE; HPDE, read-out: EC50 [nM])	EC50 (Dan-G [2]; read-out: EC50 [nM])	EC50 (Capan-1; [17])	EC50 (HuP-T4; [20])	EC50 (FAMPAC [9]; read-out: EC50 [nM])	EC50 (Suit2-07 [10]; read-out: EC50 [nM])	EC50 (PSN-1 [11]; [23])	other results
CC(C)(C)c1nc(-c2cccc(NS(=O)(=O)c3c(F)cccc3F)c2F)c(-c2ccnc(N)n2)s1 [Dabrafenib]	9480 nM	971 nM	5600 nM	975 nM	–	749 nM	197 nM	274 nM	50.5 nM	1830 nM	–	–	–	EC50 (BxPC-3 [4]): 348 nM; EC50 (FAMPAC [5]): 428 nM; EC50 (Suit2-07 [6]): 883 nM; EC50 (PSN-1 [7]): 341 nM
COc1cc2nccc(Oc3ccc(NC(=O)C4(C(=O)Nc5ccc(F)cc5)CC4)cc3)c2cc1OC [Cabozantinib]	4380 nM	–	3550 nM	> 10000 nM	> 10000 nM	–	> 10000 nM	–	6600 nM	3810 nM	> 10000 nM	> 10000 nM	> 10000 nM	EC50 (PaTu-8988-T [12]): 4020 nM; EC50 (Dan-G [13]): > 10000 nM; EC50 (MiaPaCa-2 [14]): > 10000 nM
O=C(Nc1cnn2ccc(N3CCC[C@@H]3c3cc(F)ccc3F)nc12)N1CC[C@H](O)C1 [Larotrectinib]	–	–	–	–	–	–	–	–	–	–	–	–	–	EC50 (BxPC-3 [8]; 72 h, read-out: EC50): 357 nM; EC50 (PaTu-8988-T [1]; read-out: EC50): 678 nM; EC50 (HPDE; read-out: EC50): 459 nM; EC50 (Colo-357; 72 h, read-out: EC50): 34.9 nM; EC50 (Dan-G [2]; read-out: EC50): 451 nM; EC50 (FAMPAC [9]; read-out: EC50): 842 nM; EC50 (Capan-1; 72 h, read-out: EC50): 3880 nM; EC50 (Suit2-07 [10]; read-out: EC50): 196 nM; EC50 (MiaPaCa-2 [3]; 72 h, read-out: EC50): 53.6 nM; EC50 (PANC-1; 72 h, read-out: EC50): 211 nM; EC50 (HuP-T4; 72 h, read-out: EC50): 148 nM; EC50 (AsPC-1; 72 h, read-out: EC50): 53.5 nM; EC50 (PSN-1 [11]; 72 h, read-out: EC50): 270 nM
N#CC1(c2ccc(NC(=O)c3cccnc3NCc3ccncc3)cc2)CCCC1 [Apatinib]	4280 nM	> 10000 nM	2350 nM	452 nM	5230 nM	> 10000 nM	7430 nM	5380 nM	> 10000 nM	283 nM	> 10000 nM	1420 nM	> 10000 nM	–
FC(F)(F)c1ccc(CNc2ccc(Cc3c[nH]c4ncc(Cl)cc34)cn2)cn1 [Pexidartinib]	10100 nM	2640 nM	2210 nM	9890 nM	8880 nM	46.5 nM	10200 nM	6180 nM	> 10000 nM	4690 nM	4000 nM	1100 nM	6940 nM	–
N#CCNC(=O)c1ccc(-c2ccnc(Nc3ccc(N4CCOCC4)cc3)n2)cc1 [Momelotinib]	953 nM	–	8650 nM	4110 nM	–	–	8470 nM	6780 nM	9140 nM	2670 nM	–	–	–	EC50 (PaTu-8988-T [12]): > 10000 nM; EC50 (FAMPAC [5]): > 10000 nM; EC50 (Suit2-07 [6]): 5780 nM; EC50 (MiaPaCa-2 [14]): > 10000 nM; EC50 (PSN-1 [7]): > 10000 nM
CC[C@@H]1CN(C(=O)NCC(F)(F)F)C[C@@H]1c1cnc2cnc3[nH]ccc3n12 [Upadacitinib]	1.06 nM	1590 nM	215 nM	137 nM	704 nM	> 10000 nM	26.9 nM	309 nM	0.18 nM	973 nM	49 nM	6.77 nM	7050 nM	–
Cc1cc2cc(Oc3ccnc(Nc4cccc(CS(=O)(=O)NCCN(C)C)c4)n3)ccc2[nH]1 [Sulfatinib]	6810 nM	–	7980 nM	> 10000 nM	4560 nM	–	5550 nM	> 10000 nM	3530 nM	1900 nM	> 10000 nM	> 10000 nM	5780 nM	EC50 (PaTu-8988-T [12]): > 10000 nM; EC50 (MiaPaCa-2 [14]): 3080 nM
O=S(=O)(c1cccc2cnccc12)N1CCCNCC1 [Fasudil]	6850 nM	3390 nM	5330 nM	2.85 nM	805 nM	1140 nM	> 10000 nM	2960 nM	> 10000 nM	609 nM	> 10000 nM	2790 nM	0.04 nM	–
O=C(c1cc(Cc2n[nH]c(=O)c3ccccc23)ccc1F)N1CCN(C(=O)C2CC2)CC1 [Olaparib]	7820 nM	5000 nM	> 10000 nM	446 nM	3550 nM	1870 nM	1490 nM	–	> 10000 nM	3200 nM	–	9600 nM	> 10000 nM	EC50 (Dan-G [13]): 3940 nM; EC50 (FAMPAC [5]): 8230 nM

Second part, led by results:

EC50 (Colo-357; [16])	EC50 (MiaPaCa-2 [3]; [18])	EC50 (PANC-1; [19])	EC50 (AsPC-1; [21])	EC50 (BxPC-3 [8]; [22])	SMILES	EC50 (PaTu-8988-T [1]; [15])	EC50 (HPDE; HPDE, read-out: EC50 [nM])	EC50 (Dan-G [2]; read-out: EC50 [nM])	EC50 (Capan-1; [17])	EC50 (HuP-T4; [20])	EC50 (FAMPAC [9]; read-out: EC50 [nM])	EC50 (Suit2-07 [10]; read-out: EC50 [nM])	EC50 (PSN-1 [11]; [23])	other results
109 nM	> 10000 nM	4980 nM	7970 nM	> 10000 nM	Cn1cc(C2=C(c3cn(C4CCN(Cc5ccccn5)CC4)c4ccccc34)C(=O)NC2=O)c2ccccc21 [Enzastaurin]	5780 nM	9200 nM	873 nM	401 nM	2270 nM	> 10000 nM	> 10000 nM	–	EC50 (PSN-1 [7]): > 10000 nM
2640 nM	718 nM	365 nM	1.48 nM	756 nM	CC#CC(=O)N1CCC[C@H]1c1nc(-c2ccc(C(=O)Nc3ccccn3)cc2)c2c(N)nccn12 [Acalabrutinib]	1590 nM	703 nM	553 nM	3020 nM	632 nM	> 10000 nM	13.1 nM	4470 nM	–
7510 nM	6110 nM	3660 nM	78.2 nM	2150 nM	Cc1cccc(-c2[nH]c(CNc3ccccc3F)nc2-c2ccc3ncnn3c2)n1 [Vactosertib]	838 nM	217 nM	51.8 nM	809 nM	17.8 nM	3450 nM	0.8 nM	4290 nM	–
75 nM	770 nM	21.2 nM	17.1 nM	52.1 nM	N#CCC1(n2cc(-c3ncnc4[nH]ccc34)cn2)CN(C2CCN(C(=O)c3ccnc(C(F)(F)F)c3F)CC2)C1 [Itacitinib]	292 nM	873 nM	3820 nM	142 nM	316 nM	1420 nM	72.1 nM	124 nM	–
226 nM	8640 nM	3950 nM	114 nM	2030 nM	C[C@@H](c1ccc2nccn2c1)n1nnc2ncc(-c3cnn(C)c3)nc21 [Volitinib]	> 10000 nM	80 nM	5780 nM	> 10000 nM	91.1 nM	1030 nM	285 nM	16.9 nM	–
